“Also recorded” adds a separate entry of the source. Like-named read-outs stand apart in the source and are kept apart here.
How the values were obtained:
red blood cells = conditions: cited from earlier work
[1] = in vivo; cited from earlier work
Aqueous solubility = assay type: physicochemical; conditions: at physiologic pH
Description: Aqueous solubility is a desirable characteristic of adjuvant-active saponins and aids in vaccine formulation and efficacy (Kensil, 1996). Unlike oil-based emulsions and mineral salt adjuvants which can denature antigens and prevent protective effects, saponins are non-denaturing adjuvants due to their high aqueous solubility. Their high water solubility also obviates extensive homogenation procedures required for emulsion-type adjuvants, permitting simple mixing of aqueous adjuvant and antigen solutions prior to immunization. […] Water-soluble O-glycosides of simple hydroxybenzaldehydes (e.g., helicin (31)) not only occur in nature but readily form stable Schiff-base derivatives as well (see, The Merck Index, 12th ed.; Merck & Co., Inc.: Whitehouse Station, N.J., 1996) The synthetically simpler succinate (VI) is also useful since succinic acid constitutes a simple 4-carbon isostere for the glucuronic acid moiety and has been used to impart triterpenes with aqueous solubility (see, Gottfried and Baxendale, U.S. Pat. No. 3,070,623, 1962).

sheep red blood cells = conditions: cited from earlier work
[2] = cited from earlier work

Molecule	hemolytic activity towards red blood cells (red blood cells)	adjuvant activity [1]	aqueous solubility (Aqueous solubility)	concentrations causing no detectable hemolysis of sheep red blood cells (sheep red blood cells)	critical micellar concentration in phosphate buffered saline [2]	critical micellar concentration in water [2]	concentrations causing hemolysis of sheep red blood cells (sheep red blood cells)	concentrations causing hemolysis of sheep red blood cells (sheep red blood cells; sheep red blood cells)
C[C@@H]1CC[C@@]2(OC1)O[C@H]1[C@@H](O)[C@H]3[C@@H]4CC[C@H]5C[C@@H](O[C@@H]6O[C@H](CO)[C@H](O[C@@H]7O[C@H](CO)[C@@H](O)[C@H](O[C@@H]8OC[C@@H](O)[C@H](O)[C@H]8O)[C@H]7O[C@@H]7O[C@H](CO)[C@H](O)[C@H](O[C@@H]8O[C@H](CO)[C@@H](O)[C@H](O)[C@H]8O)[C@H]7O)[C@H](O)[C@H]6O)[C@H](O)C[C@]5(C)[C@H]4CC[C@]3(C)[C@H]1[C@@H]2C [digitonin]	highly hemolytic	adjuvant-inactive	–	–	–	–	–	–
O=Cc1cc(OCc2ccc(C(=O)O)cc2)ccc1O [isotucaresol]	–	–	sparingly soluble	–	–	–	–	–
QS-7	non-hemolytic	potent adjuvants; also recorded: potent inducer of cell-mediated and humoral responses	–	≤ 200000 ng/mL	~0.07%	approximately 0.06%	–	–
QS-17	–	potent adjuvants	–	–	0.03 % (w/v)	0.06 % (w/v)	≥ 25000 ng/mL	–
QS-18	–	potent adjuvants	–	–	0.02 % (w/v)	0.04 % (w/v)	≥ 25000 ng/mL	–
QS-21	–	potent adjuvants	–	–	~0.02 % (w/v)	about 0.03 % (w/v)	–	≥ 25000 ng/mL

Reference: US20030228279A1, “Compositions and methods for viral delivery” (Corixa Corporation, priority 2001, published 2003)
